System: EpiDerm™ skin model (Epi-200)
Assay: EpiDerm skin model: barrier against trypsin and IL-1α pro-inflammatory response
Assay type: cell-based, human
Conditions: 15 microliters formulation 30 min before 10 microliters of 200 μg/ml trypsin; media assayed by ELISA after 6 hours
Description: The EpiDerm™ skin model (Epi-200, Mattek Corporation, Ashland, Mass.) was used to assess the ability of the lipid-enriched wet wipe formulations to enhance skin barrier against permeation of trypsin (a skin irritating, fecal enzyme) and prevent a Interleukin-1α (IL-1α) response which is a measure of inflammation.
Test formulations (15 microliters) were added to the surface of the EpiDerm™ skin model and incubated for 30 minutes at 37° C., 5% CO2 prior to dosing with the fecal enzyme, trypsin. The study was conducted using Epi-200 assay media devoid of hydrocortisone and pH indicator that was prepared by the manufacturer. After 30 minutes, the underlying media was removed and replaced with fresh, pre-warmed media followed by application of 10 microliters of 200 μg/ml of trypsin. The skin wells were incubated for 6 hours before the underlying media was removed and stored for further analysis. […] Also, the amount of IL-1α in the media was measured using commercially available ELISA kits (Quantikine™ Human IL-1α Immunoassay, R&D Systems, Minneapolis, Minn.) specific for IL-1α to assess the ability of the formulations to prevent a pro-inflammatory response by the enzyme compared to the no treatment control.

trypsin
Irritation: Pro-inflammatory Response (IL-1α), Average IL-1α: 108.7
